Data as given in patent US11912705B2, “Cathinone derivatives, pharmaceutical formulations, and methods” (The Corporation of Mercer University, priority 2020, dated 2024).
Where two headings read alike, the source gives them in different places.

Assays:
human M1R = molecular target: T1, human M1R (Homo sapiens, UniProt P11229); experiment: biochemical; format: binding
T1 construct: host or cells: HEK293 (CRL-1573, ATCC), transient
T1 sequence (P11229 1-460): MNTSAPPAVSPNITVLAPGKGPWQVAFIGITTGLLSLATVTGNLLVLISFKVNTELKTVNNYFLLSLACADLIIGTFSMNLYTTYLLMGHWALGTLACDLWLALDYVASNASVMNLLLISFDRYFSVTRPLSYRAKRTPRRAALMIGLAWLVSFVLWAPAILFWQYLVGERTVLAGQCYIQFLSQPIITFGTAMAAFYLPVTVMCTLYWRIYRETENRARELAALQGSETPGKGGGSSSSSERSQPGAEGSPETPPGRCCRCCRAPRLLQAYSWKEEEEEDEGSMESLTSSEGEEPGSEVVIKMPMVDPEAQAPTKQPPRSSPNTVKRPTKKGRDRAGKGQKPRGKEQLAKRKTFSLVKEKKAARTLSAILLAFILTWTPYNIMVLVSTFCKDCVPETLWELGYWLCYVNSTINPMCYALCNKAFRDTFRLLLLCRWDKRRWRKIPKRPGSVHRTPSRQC
Experimental: (§1) Radioligand Competition Binding: Radioligand competition binding assays were conducted using membranes collected from transiently transfected HEK293 cells (P<20 from a procured stock, CRL-1573, ATCC, Manassas, Va., USA) as previously described (Chen, Y., et al. Drug Test Anal 11, 990-998). Briefly, cells ˜90% confluent in 10 cm plates were transfected with 5 μg human M1R, M2R, M3R, M4R or […] cDNA (cDNA resource center, Bloomsburg, Pa., USA) using a lipid-based method (LipoD293 reagent, SignaGen Laboratories, Rockville, Md., USA). Membranes were collected by centrifugation about 48 hours later and stored at −80° C. until used. […] After a 90-minute incubation at room temperature on a shaker, contents from the plates were rapidly filtered through GF/B fiberglass filter mats, pre-soaked with ice cold 50 mM Tris buffer (pH 7.4), using a Microbeta Filtermat-96 cell harvester (Perkin Elmer, Waltham, Mass., USA). Approximately 200 mL of ice cold, 50 mM Tris buffer was then vacuumed through filter mats to wash away unbound radioligand. Filter mats were dried on a hot plate and soaked in Betaplate (Perkin Elmer, Waltham, Mass., USA) scintillation fluid in plastic bags. Bags were sealed and placed in cassettes. Radioactivity was measured in a Microbeta2 Microplate Counter (Perkin Elmer, Waltham, Mass., USA), and counts per minute corresponding to each well on the plates were recorded. For full dose-response competition binding assays, increasing half-log unit concentrations of five unsubstituted PSCs were tested at M2Rs and M1Rs, with the same procedures described above.
(§2) Curve Fitting and Statistical Analyses: All data were analyzed by GraphPad 8.3.0 (San Diego, Calif., USA). Ki values were determined from data fit to both one- and two-site models. […] EC50 and IC50 values from functional assays were determined from data fit to the log(agonist) vs. response (three parameters) or log(inhibitor) vs. response (three parameters) model, respectively. Kb values were calculated from IC50 values using the Cheng-Prusoff equation with modification (see, e.g., Leff, P., and Dougall, I. G. (1993) Trends Pharmacol Sci 14, 110-112): Kb=IC50/((2+([A]/[A50])nH)1/nH−1)

human M2R = molecular target: T2, human M2R (Homo sapiens, UniProt P08172); experiment: M2R cAMP signaling (forskolin-stimulated cAMP, oxotremorine agonist); format: cell-based
T2 construct: host or cells: HEK293 (CRL-1573, ATCC), transient
T2 sequence (P08172 1-466): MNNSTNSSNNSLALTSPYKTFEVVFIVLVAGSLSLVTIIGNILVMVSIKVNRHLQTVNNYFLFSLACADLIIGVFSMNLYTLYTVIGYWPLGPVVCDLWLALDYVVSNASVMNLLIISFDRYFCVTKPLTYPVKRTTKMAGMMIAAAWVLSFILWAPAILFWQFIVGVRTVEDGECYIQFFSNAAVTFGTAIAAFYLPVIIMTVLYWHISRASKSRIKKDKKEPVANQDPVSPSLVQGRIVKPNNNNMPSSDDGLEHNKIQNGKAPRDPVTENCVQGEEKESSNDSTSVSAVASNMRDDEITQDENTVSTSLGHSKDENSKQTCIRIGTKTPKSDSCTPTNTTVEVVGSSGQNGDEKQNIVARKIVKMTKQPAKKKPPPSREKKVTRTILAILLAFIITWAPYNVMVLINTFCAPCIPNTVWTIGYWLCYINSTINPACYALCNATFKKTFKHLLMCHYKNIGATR
Experimental: The M2R coupled to Gαi/o proteins, and its agonism functioned to decrease formation of the intracellular second messenger cyclic-adenosine-monophosphate (cAMP). […] In the presence of oxotremorine, an antagonist of the M2R would be expected to reverse the effects of the agonist, thereby increasing cAMP formation.
M2R cAMP Signaling: cAMP measurements were performed with the cAMP Hunter eXpress® CHRM2 CHO-K1 GPCR assay (Eurofins DiscoveRx, Fremont, Calif., USA) according to the manufacturer's protocol. Briefly, in the provided 96-well tissue culture-treated plate, 100 μL of human M2R expressing CHO-K1 cells were seeded in cell plating reagent and incubated (37° C., 5% CO2, 95% humidity) overnight. Cell plating reagent was replaced with 30 μL of cell assay buffer the next day. For agonist stimulation, cells were treated with increasing half-log unit concentrations of oxotremorine in the presence of 10 μM forskolin, followed by incubation for 30 minutes. A cAMP antibody, cAMP working detection solution and enzyme acceptor solution were then added according to the protocol, and the final chemiluminescent signals were detected by a Mithras LB 940 microplate reader (Berthold Technologies, Bad Wildbad, Germany). Antagonist tests were run by pretreating cells with increasing half-log unit concentrations of α-PHP, followed by incubation for one hour. Cells were then treated with EC80 concentration of oxotremorine (130 nM) and 10 μM forskolin. The same incubation and detection procedure used for agonist assays was used for the remaining steps.
as §2

human M4R = molecular target: T3, human M4R (Homo sapiens, UniProt P08173); experiment: [3H]Scopolamine radioligand competition binding at M4R
T3 construct: host or cells: HEK293 (CRL-1573, ATCC), transient
T3 sequence (P08173 1-479): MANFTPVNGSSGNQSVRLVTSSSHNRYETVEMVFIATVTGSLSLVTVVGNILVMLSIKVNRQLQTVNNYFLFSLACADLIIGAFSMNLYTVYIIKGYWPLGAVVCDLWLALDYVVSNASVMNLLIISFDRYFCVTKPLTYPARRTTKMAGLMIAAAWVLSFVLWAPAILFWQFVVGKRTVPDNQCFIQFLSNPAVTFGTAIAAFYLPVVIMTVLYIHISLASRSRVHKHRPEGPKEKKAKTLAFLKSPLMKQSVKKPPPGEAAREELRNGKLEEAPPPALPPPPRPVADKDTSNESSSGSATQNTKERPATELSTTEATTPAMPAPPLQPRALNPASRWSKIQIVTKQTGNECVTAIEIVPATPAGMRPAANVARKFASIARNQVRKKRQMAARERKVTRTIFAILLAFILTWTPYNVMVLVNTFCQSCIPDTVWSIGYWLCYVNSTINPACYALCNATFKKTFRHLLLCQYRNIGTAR
Experimental: as §1, §2

[1] = human muscarinic M1 (N = 6), [3H]-N-methylscopolamine, read-out: Affinities, Ki ± SEM, nM M1

SMILES | Ki (human M1R; [1]) | Kb (human M2R) | Ki (human M4R) | fold increase in M1R affinity from α-PPP (human M1R) | Ki (human M1R; estimate from 1 and 10 μM concentrations (N = 2), N.C. = <5% displacement of radioligand at 10 μM, read-out: estimated pKi at M1R (converted)) | Ki (human M1R; full dose-response [3H]Scopolamine competition binding, α-PPP and α-PBP interpolated, read-out: pKi at M1R (converted))
CCCCC(C(=O)c1ccccc1)N1CCCCC1 (centres unmarked) [Compound (1), 1-phenyl-2-(piperidin-1-yl)hexan-1-one] | 1010 nM | 0.126 µM | 1.24 µM |  |  | 
CCCCC(C(=O)c1ccccc1)N1CCCCCC1 (centres unmarked) [Compound (2), 2-(azepan-1-yl)-1-phenylhexan-1-one] | 1490 nM | 0.158 µM | 0.997 µM |  |  | 
CCCCC(C(=O)c1ccccc1)N1CCCC1 (stereo not drawn) [α-PHP, 1-phenyl-2-(pyrrolidin-1-yl)hexan-1-one] |  | 0.12 µM | 1.95 µM | 121 fold | 2570 nM | 1580 nM
